# Values of other authors as cited in patent US8822536B2, “Dietary supplements containing terpenoid acids of maslinic acid or oleanolic acid and process for enhancing muscle mass in mammals” (FHG Corporation d/b/a Integrity Nutraceuticals, priority 2009, dated 2014).
# Assays:
# juvenile dentex fish = settings: 80 mg kg-1
# glycogen phosphorylase = biological target: T1, glycogen phosphorylase (Oryctolagus cuniculus, UniProt P00489)
# T1 sequence (P00489 2-843 limits assumed): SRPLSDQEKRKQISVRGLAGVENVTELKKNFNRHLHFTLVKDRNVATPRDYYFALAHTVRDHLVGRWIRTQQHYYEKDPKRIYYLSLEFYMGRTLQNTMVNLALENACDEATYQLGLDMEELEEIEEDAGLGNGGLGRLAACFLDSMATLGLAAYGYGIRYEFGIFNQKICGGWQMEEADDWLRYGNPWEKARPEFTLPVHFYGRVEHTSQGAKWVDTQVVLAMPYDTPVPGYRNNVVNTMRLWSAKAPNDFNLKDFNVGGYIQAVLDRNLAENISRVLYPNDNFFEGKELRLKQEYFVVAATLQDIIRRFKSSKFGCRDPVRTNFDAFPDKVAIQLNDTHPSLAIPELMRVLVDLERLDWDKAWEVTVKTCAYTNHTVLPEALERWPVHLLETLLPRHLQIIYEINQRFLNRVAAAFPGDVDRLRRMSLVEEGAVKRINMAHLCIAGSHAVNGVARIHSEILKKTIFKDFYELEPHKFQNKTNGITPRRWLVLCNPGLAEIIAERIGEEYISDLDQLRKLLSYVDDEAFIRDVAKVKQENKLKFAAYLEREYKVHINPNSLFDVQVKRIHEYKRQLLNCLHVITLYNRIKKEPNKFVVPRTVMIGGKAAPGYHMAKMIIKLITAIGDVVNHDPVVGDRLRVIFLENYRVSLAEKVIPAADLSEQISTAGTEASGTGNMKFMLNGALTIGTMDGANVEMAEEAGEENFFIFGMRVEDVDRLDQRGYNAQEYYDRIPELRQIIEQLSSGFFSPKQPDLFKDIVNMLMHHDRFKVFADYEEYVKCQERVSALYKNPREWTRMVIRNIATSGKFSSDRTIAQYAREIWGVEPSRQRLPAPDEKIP
# [1] = trout fed 250 mg kg-1, with respect to a control
# [2] = trout fed 25 and 250 mg kg-1, white muscle
smiles,measurement,setting,value
"CC1(C)CC[C@]2(C(=O)O)CC[C@]3(C)C(=CC[C@@H]4[C@@]5(C)C[C@@H](O)[C@H](O)C(C)(C)[C@@H]5CC[C@]43C)[C@@H]2C1 [maslinic acid, 2-α,3-β-dihydroxyolean-12-en-28-oic acid]",growth of juvenile dentex fish,juvenile dentex fish,retard
same,glycogen phosphorylase inhibition,glycogen phosphorylase,new type of glycogen phosphorylase inhibitor
same,"protein degradation rate, relative (KD) and absolute (AD)","trout; dietary maslinic acid, trout",stimulated
same,protein synthesis,"trout; dietary maslinic acid, trout",induces higher protein synthesis
same,feed-efficiency ratio (FER),trout; [1],increased
same,protein-efficiency ratio (PER),trout; [1],increased
same,absolute protein-degradation rate (AD),trout; [2],only a minor increase
same,fractional protein-degradation rate (KD),trout; [2],no significant changes
same,protein-synthesis rate (KS and AS),trout; [2],increased
same,protein-accumulation rates (KG and AG),trout; trout fed with maslinic acid,high protein-accumulation rates
same,accumulation of glycogen in liver,rainbow trout liver,high accumulation of glycogen
